Reference: US5892029A, “3-hydroxy-2(1H)-pyridinone chelating agents” (priority 1997, dated 1999)
Read-outs that look alike come from different tables or passages of the source.

Experiments:
[1] = 30 μmol/kg i.p. at 1 h; reported previously (footnote e); cited from earlier work
[2] = format: in vivo, mice
Procedure: The test of acute toxicity of these novel ligands was carried out as follows. […] The ligand was dissolved in 0.5 to 1.0 ml of saline at pH 7 to 8. After a period of observation, the mice were killed, selected tissues were removed and fixed for histopathological examination,and unusual findings at autopsy were recorded.

[3] = Liquid/liquid extraction of Pu(IV) from aqueous solution (Tables 7 and 8)
Procedure: Liquid/liquid extractions were performed with the radioactive plutonium isotope ^242 Pu at the Lawrence Livermore National Laboratory's Glenn T. Seaborg Institute for Transactinium Science, Livermore, Calif. The aqueous phase contained ^242 Pu, while the organic phases contained 3,2-HOPO ligands at 2-5 mM concentration. Kinetic studies were the primary method used to determine the efficacy of the specific ligand in organic solvent. Generally, five microcentrifuge tubes were prepared with the same organic and aqueous phases, and shaken with a vortex-style mixer for 1, 5, 10, and 20 minutes. After mixing, an aliquot of each phase was pipetted from the tube into a scintillation vial, mixed with a scintillation cocktail, and scintillation counted to determine the amount of the radioactive species present in each phase after extraction.

[4] = protocol IA: 100 μmol/kg × 2 daily, 6 d, two moribund mice autopsied on d 3
[5] = protocol IA: 100 μmol/kg × 2 daily, 3 d, mean ± SD
[6] = protocol IA: 100 μmol/kg × 2 daily, 11 d, mean ± SD
[7] = protocol I: 100 μmol/kg × 10 daily i.p., 11 d, mean ± SD
[8] = protocol I: 100 μmol/kg × 10 daily i.p., 21 d, mean ± SD
[9] = protocol II: 500 μmol/kg × 2 in 8 h i.p., 8 d, mean ± SD
[10] = octanol, 0.10M aqueous, 1.0 min
[11] = octanol, 0.10M aqueous, 5.0 min
[12] = octanol, 0.10M aqueous, 10.0 min
[13] = octanol, 0.10M aqueous, 20.0 min
[14] = octanol, 5.0M aqueous, 10.0 min
[15] = octanol, 5.0M aqueous, 20.0 min

O=C(NCCCN(CCCCN(CCCNC(=O)c1cccc(=O)n1O)C(=O)c1cccc(=O)n1O)C(=O)c1cccc(=O)n1O)c1cccc(=O)n1O [3,4,3-LI(1,2-HOPO)]
238Pu excreta: feces and GI contents [1]: 57% of injected ^238 Pu | 238Pu excreta: urine 0-24 h [1]: 23% of injected ^238 Pu | 238Pu in kidneys at 24 h [1]: 0.2% of injected ^238 Pu | 238Pu in liver at 24 h [1]: 8.9 ± 1.7% of injected ^238 Pu | 238Pu in skeleton at 24 h [1]: 7.5 ± 0.7% of injected ^238 Pu | 238Pu in soft tissue at 24 h [1]: 1.6 ± 0.6% of injected ^238 Pu | 238Pu in whole body at 24 h [1]: 18 ± 1.7% of injected ^238 Pu

O=C(NCCCCN(CCCNC(=O)c1cccc(=O)n1O)C(=O)c1cccc(=O)n1O)c1cccc(=O)n1O [3,4-LI(1,2-HOPO)]
238Pu excreta: feces and GI contents [1]: 58% of injected ^238 Pu | 238Pu excreta: urine 0-24 h [1]: 7.9% of injected ^238 Pu | 238Pu in kidneys at 24 h [1]: 0.6% of injected ^238 Pu | 238Pu in liver at 24 h [1]: 18 ± 4.8% of injected ^238 Pu | 238Pu in skeleton at 24 h [1]: 9.9 ± 3.6% of injected ^238 Pu | 238Pu in soft tissue at 24 h [1]: 5.8 ± 1.3% of injected ^238 Pu | 238Pu in whole body at 24 h [1]: 34 ± 9.2% of injected ^238 Pu

Cn1ccc(C(=O)NCCCNC(=O)c2ccn(C)c(=O)c2O)c(O)c1=O [3-LI-Me-3,2-HOPO, 1,3-bis[(3-hydroxy-1-methyl-2-oxo-1,2-dihydropyridin-4-yl)carboxamido] propane]
toxicity / mortality (in words) ([2]; mouse, in vivo): all mice were dead by d 3 | no. of survivors ([2]; protocol IA: 100 μmol/kg × 2 daily, 6 d, of 10 mice): 0 | body weight [2, 4]: 89 ± 4 percent control | kidney weight [2, 4]: 222 ± 29 percent control | plasma urea N [2, 4]: > 1800 percent control

Cn1ccc(C(=O)NCCCCCCNC(=O)c2ccn(C)c(=O)c2O)c(O)c1=O [6-LI-Me-3,2-HOPO, 1,6-bis[(3-hydroxy-1-methyl-2-oxo-1,2-dihydropyridin-4-yl)carboxamido]hexane]
body weight [2, 5]: 83 ± 3 percent control | kidney weight [2, 5]: 132 ± 11 percent control | plasma urea N [2, 5]: 343 ± 140 percent control | no. of survivors ([2]; protocol IA: 100 μmol/kg × 2 daily, 3 d, of 5 mice): 5 | body weight [2, 6]: 101 ± 5 percent control | kidney weight [2, 6]: 112 ± 13 percent control | plasma urea N [2, 6]: 92 ± 6 percent control | no. of survivors ([2]; protocol IA: 100 μmol/kg × 2 daily, 11 d, of 5 mice): 3

CC(=O)N(O)CCCCCNC(=O)CCC(=O)N(O)CCCCCNC(=O)CCC(=O)N(O)CCCCCN [DFO, desferrioxamine B]
238Pu excreta: feces and GI contents [1]: 15.1% of injected ^238 Pu | 238Pu excreta: urine 0-24 h [1]: 38% of injected ^238 Pu | 238Pu in kidneys at 24 h [1]: 1.8% of injected ^238 Pu | 238Pu in liver at 24 h [1]: 19 ± 13% of injected ^238 Pu | 238Pu in skeleton at 24 h [1]: 20 ± 11% of injected ^238 Pu | 238Pu in soft tissue at 24 h [1]: 4.5 ± 1.4% of injected ^238 Pu | 238Pu in whole body at 24 h [1]: 45 ± 2.5% of injected ^238 Pu

CC(=O)N(O)CCCCCNC(=O)CCC(=O)N(O)CCCCCNC(=O)CCC(=O)N(O)CCCCCNC(=O)c1cccc(=O)n1O [DFO-(1,2-HOPO)]
238Pu excreta: feces and GI contents [1]: 46.7% of injected ^238 Pu | 238Pu excreta: urine 0-24 h [1]: 9.5% of injected ^238 Pu | 238Pu in kidneys at 24 h [1]: 0.1% of injected ^238 Pu | 238Pu in liver at 24 h [1]: 5.1 ± 2.2% of injected ^238 Pu | 238Pu in skeleton at 24 h [1]: 6.0 ± 0.5% of injected ^238 Pu | 238Pu in soft tissue at 24 h [1]: 2.3 ± 0.5% of injected ^238 Pu | 238Pu in whole body at 24 h [1]: 13 ± 2.9% of injected ^238 Pu

Cn1ccc(C(=O)NCCN(CCNC(=O)c2ccn(C)c(=O)c2O)CCN(CCNC(=O)c2ccn(C)c(=O)c2O)CCNC(=O)c2ccn(C)c(=O)c2O)c(O)c1=O [H(2,2)-Me-3,2-HOPO, N,N,N',N'-tetrakis[(3-hydroxy-1-methyl-2-oxo-1,2-dihydropyridin-4-yl)carboxamido-ethyl]-ethylenediamine]
body weight [2, 7]: 92 ± 6 percent control | plasma urea N [2, 7]: 223 ± 28 percent control | no. of survivors ([2]; protocol I: 100 μmol/kg × 10 daily i.p., 11 d, of 5 mice): 5 | body weight [2, 8]: 87 ± 9 percent control | plasma urea N [2, 8]: 225 ± 188 percent control | no. of survivors ([2]; protocol I: 100 μmol/kg × 10 daily i.p., 21 d, of 5 mice): 5 | body weight [2, 9]: 94 ± 6 percent control | plasma urea N [2, 9]: 169 ± 10 percent control | no. of survivors ([2]; protocol II: 500 μmol/kg × 2 in 8 h i.p., 8 d, of 19 (TREN) or 10 (H(2,2)) mice): 3

CCCCCCCCCCNC(=O)c1ccn(C)c(=O)c1O [Me-2-HOPO-Decylamide]
% Pu(IV) Extracted ([3]; MIBK, 0.10M aqueous, 1.0 min): 98.2 ± 4.5% | Partition Coefficient ([3]; MIBK, 0.10M aqueous, 1.0 min): 53.63 ± 1.60 | % Pu(IV) Extracted ([3]; MIBK, 0.10M aqueous, 5.0 min): 95.9 ± 4.4% | Partition Coefficient ([3]; MIBK, 0.10M aqueous, 5.0 min): 23.40 ± 1.14 | % Pu(IV) Extracted ([3]; MIBK, 0.10M aqueous, 10.0 min): 97.7 ± 4.5% | Partition Coefficient ([3]; MIBK, 0.10M aqueous, 10.0 min): 42.43 ± 1.43 | % Pu(IV) Extracted ([3]; MIBK, 0.10M aqueous, 20.0 min): 93.2 ± 4.3% | Partition Coefficient ([3]; MIBK, 0.10M aqueous, 20.0 min): 13.63 ± 0.82 | % Pu(IV) Extracted ([3]; MIBK, 5.0M aqueous, 1.0 min): 97.9 ± 4.5% | Partition Coefficient ([3]; MIBK, 5.0M aqueous, 1.0 min): 46.00 ± 1.48 | % Pu(IV) Extracted ([3]; MIBK, 5.0M aqueous, 5.0 min): 97.9 ± 4.5% | Partition Coefficient ([3]; MIBK, 5.0M aqueous, 5.0 min): 46.62 ± 1.43 | % Pu(IV) Extracted ([3]; MIBK, 5.0M aqueous, 10.0 min): 95.8 ± 4.4% | Partition Coefficient ([3]; MIBK, 5.0M aqueous, 10.0 min): 22.87 ± 1.07 | % Pu(IV) Extracted ([3]; MIBK, 5.0M aqueous, 20.0 min): 81.9 ± 3.8% | Partition Coefficient ([3]; MIBK, 5.0M aqueous, 20.0 min): 4.52 ± 0.35 | % Pu(IV) Extracted [3, 10]: 68.9 ± 3.3% | Partition Coefficient [3, 10]: 2.22 ± 0.19 | % Pu(IV) Extracted [3, 11]: 96.2 ± 4.5% | Partition Coefficient [3, 11]: 25.39 ± 1.12 | % Pu(IV) Extracted [3, 12]: 95.2 ± 4.4% | Partition Coefficient [3, 12]: 19.71 ± 1.00 | % Pu(IV) Extracted [3, 13]: 92.4 ± 4.3% | Partition Coefficient [3, 13]: 12.11 ± 0.75 | % Pu(IV) Extracted ([3]; octanol, 5.0M aqueous, 1.0 min): 98.3 ± 4.6% | Partition Coefficient ([3]; octanol, 5.0M aqueous, 1.0 min): 56.64 ± 1.58 | % Pu(IV) Extracted ([3]; octanol, 5.0M aqueous, 5.0 min): 96.4 ± 4.5% | Partition Coefficient ([3]; octanol, 5.0M aqueous, 5.0 min): 26.98 ± 1.13 | % Pu(IV) Extracted [3, 14]: 93.6 ± 4.4% | Partition Coefficient [3, 14]: 14.74 ± 0.83 | % Pu(IV) Extracted [3, 15]: 88.3 ± 4.1% | Partition Coefficient [3, 15]: 7.51 ± 0.53

CCCCCCCCNC(=O)c1ccn(C)c(=O)c1O [Me-2-HOPO-Octylamide]
% Pu(IV) Extracted ([3]; MIBK, 0.10M aqueous, 1.0 min): 95.6 ± 4.4% | Partition Coefficient ([3]; MIBK, 0.10M aqueous, 1.0 min): 21.90 ± 1.09 | % Pu(IV) Extracted ([3]; MIBK, 0.10M aqueous, 5.0 min): 91.8 ± 4.3% | Partition Coefficient ([3]; MIBK, 0.10M aqueous, 5.0 min): 11.22 ± 0.73 | % Pu(IV) Extracted ([3]; MIBK, 0.10M aqueous, 10.0 min): 96.8 ± 4.5% | Partition Coefficient ([3]; MIBK, 0.10M aqueous, 10.0 min): 30.07 ± 1.26 | % Pu(IV) Extracted ([3]; MIBK, 0.10M aqueous, 20.0 min): 96.5 ± 4.5% | Partition Coefficient ([3]; MIBK, 0.10M aqueous, 20.0 min): 27.56 ± 0.76 | % Pu(IV) Extracted ([3]; MIBK, 5.0M aqueous, 1.0 min): 98.8 ± 4.6% | Partition Coefficient ([3]; MIBK, 5.0M aqueous, 1.0 min): 79.22 ± 1.71 | % Pu(IV) Extracted ([3]; MIBK, 5.0M aqueous, 5.0 min): 98.2 ± 4.6% | Partition Coefficient ([3]; MIBK, 5.0M aqueous, 5.0 min): 53.99 ± 1.54 | % Pu(IV) Extracted ([3]; MIBK, 5.0M aqueous, 10.0 min): 96.4 ± 4.5% | Partition Coefficient ([3]; MIBK, 5.0M aqueous, 10.0 min): 26.82 ± 1.18 | % Pu(IV) Extracted ([3]; MIBK, 5.0M aqueous, 20.0 min): 83.9 ± 3.9% | Partition Coefficient ([3]; MIBK, 5.0M aqueous, 20.0 min): 5.20 ± 0.40 | % Pu(IV) Extracted [3, 10]: 94.4 ± 4.4% | Partition Coefficient [3, 10]: 16.83 ± 0.89 | % Pu(IV) Extracted [3, 11]: 94.5 ± 4.5% | Partition Coefficient [3, 11]: 17.10 ± 1.12 | % Pu(IV) Extracted [3, 12]: 92.1 ± 4.3% | Partition Coefficient [3, 12]: 11.71 ± 0.72 | % Pu(IV) Extracted [3, 13]: 91.2 ± 4.2% | Partition Coefficient [3, 13]: 10.32 ± 0.67 | % Pu(IV) Extracted ([3]; octanol, 5.0M aqueous, 1.0 min): 97.8 ± 4.1% | Partition Coefficient ([3]; octanol, 5.0M aqueous, 1.0 min): 44.22 ± 1.43 | % Pu(IV) Extracted ([3]; octanol, 5.0M aqueous, 5.0 min): 97.4 ± 4.5% | Partition Coefficient ([3]; octanol, 5.0M aqueous, 5.0 min): 36.91 ± 1.30 | % Pu(IV) Extracted [3, 14]: 95.2 ± 4.4% | Partition Coefficient [3, 14]: 19.78 ± 0.98 | % Pu(IV) Extracted [3, 15]: 91.4 ± 4.3% | Partition Coefficient [3, 15]: 10.69 ± 0.67
